Test results as given in patent US20240245680A1, “Methods of Treating Retinal Vasculopathies” (Unity Biotechnology, Inc., priority 2021, published 2024).
Where a name gives a salt, the structure may show the parent alone.

Experiments:
[1] = target: T1, cKGA (kidney-type glutaminase) (Homo sapiens, UniProt O94925); details: cited from earlier work
T1 sequence (O94925 221-533 limits assumed): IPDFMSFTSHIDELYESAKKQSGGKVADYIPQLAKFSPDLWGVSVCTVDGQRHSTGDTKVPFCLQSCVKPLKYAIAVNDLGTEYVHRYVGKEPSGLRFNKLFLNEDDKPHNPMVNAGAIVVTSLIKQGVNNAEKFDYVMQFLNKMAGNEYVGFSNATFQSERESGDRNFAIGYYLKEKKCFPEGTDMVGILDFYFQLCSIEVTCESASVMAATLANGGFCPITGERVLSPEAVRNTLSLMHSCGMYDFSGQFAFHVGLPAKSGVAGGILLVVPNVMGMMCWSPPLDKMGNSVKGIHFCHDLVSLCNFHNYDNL

GLS2 = target: T2, GLS2 (Homo sapiens, UniProt Q9UI32); details: cited from earlier work
T2 sequence (Q9UI32 15-602): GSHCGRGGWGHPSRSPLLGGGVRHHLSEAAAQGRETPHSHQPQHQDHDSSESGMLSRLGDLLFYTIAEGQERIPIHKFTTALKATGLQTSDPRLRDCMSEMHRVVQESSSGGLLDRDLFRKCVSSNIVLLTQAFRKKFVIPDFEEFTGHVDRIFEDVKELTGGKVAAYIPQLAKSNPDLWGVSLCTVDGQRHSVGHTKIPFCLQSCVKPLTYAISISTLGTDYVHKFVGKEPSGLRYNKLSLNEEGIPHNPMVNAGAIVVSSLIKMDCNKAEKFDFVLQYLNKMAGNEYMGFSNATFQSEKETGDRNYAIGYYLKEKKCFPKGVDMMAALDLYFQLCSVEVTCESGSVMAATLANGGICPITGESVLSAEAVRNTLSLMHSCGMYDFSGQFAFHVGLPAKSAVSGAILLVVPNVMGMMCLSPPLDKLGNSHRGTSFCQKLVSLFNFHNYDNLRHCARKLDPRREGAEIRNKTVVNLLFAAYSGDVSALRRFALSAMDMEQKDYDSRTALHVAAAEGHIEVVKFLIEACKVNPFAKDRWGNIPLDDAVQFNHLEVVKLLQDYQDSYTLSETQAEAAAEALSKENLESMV

[2] = tested on: irradiated, senescent HUVEC cells; assay: Senolytic assay: irradiated senescent vs non-senescent HUVEC cells (CellTiter-Glo); assay type: cell-based, human; details: 1:3 dilution series, dose-dependent (FIG. 3B, 4, 6A, 6B)
From the text: (§1) The ability of candidate agents to eliminate senescent retinal vascular endothelial cells or senescent retinal pigmented epithelial cells can be measured directly in the following assay. Human retinal microvascular endothelial cells (HRMEC) can be obtained from Neuromics® with the designation HEC09 or Cell Systems ACBRI 181. Human umbilical vein endothelial cells (HUVEC) can be obtained from Lonza® with the designation CC-2519. The cells can be maintained and propagated at <75% confluency in ENDO-Growth® Media (Neuromics®, Edina M N) at 3% O2, 10% CO2, and ˜95% humidity. Human retinal pigmented epithelial cells (RPE) can be obtained from Lonza® with the designation 194987. […]
(§2) On day 0, the irradiated HRMEC or RPE or HUVEC cells can be incubated with TrypLE trypsin-containing reagent (Thermofisher® Scientific, Waltham, Massachusetts) until the cells round up and begin to detach from the plate. Cells can then be dispersed, counted, and prepared in medium at a concentration of 100,000 cells per mL. […] On day 3, the quiescent healthy non-senescent HRMEC or RPE cells can be trypsinized from the culture flask as described above, and the cells can be dispersed, counted, and prepared in medium at a concentration of 80,000 cells per mL. […]

[3] = tested on: irradiated, senescent HRMEC cells; assay: Senolytic assay: irradiated senescent vs non-senescent HRMEC cells (CellTiter-Glo); assay type: cell-based, human; details: 1:3 dilution series, dose-dependent (FIG. 3A, FIG. 5)
From the text: as §1, §2

GPX4 = target: T3, GPX4 (Mus musculus, UniProt O70325); assay: GPX4 competitive target engagement gel-shift assay, adult murine retinas; assay type: in vivo; details: integrated band density (FIGS. 8A-8C)
T3 construct: from tissue; host or cells: adult murine retina
T3 sequence (O70325 whole entry): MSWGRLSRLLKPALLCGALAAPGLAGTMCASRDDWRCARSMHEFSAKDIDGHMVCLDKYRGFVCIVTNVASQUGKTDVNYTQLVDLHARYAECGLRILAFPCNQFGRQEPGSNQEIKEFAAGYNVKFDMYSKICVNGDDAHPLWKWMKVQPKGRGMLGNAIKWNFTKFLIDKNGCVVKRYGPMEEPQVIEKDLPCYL
Method: A gel shift assay was developed for the detection of either in vitro cell line or in vivo tissue target engagement (TE) of a GPX4 inhibitor. See FIG. 7 for a schematic of the assay.
In vitro labeling protocol: Two frozen murine retinas were added directly to 0.5 mL Precellys® tubes with ceramic beads and 200 μL of cold mPER with 1× Roche EDTA-free protease inhibitors and 5 mM TCEP. The retina tissue was homogenized using a single 15 s burst at 4500 RPM at 4° C. The tubes were spun at 5 k×g for 5 min @ 4° C. to remove the foam, then all liquid was transferred to 1.5 mL Eppendorfs®. The samples were spun @ 20 k×g for 10 min at 4° C., and the clarified lysates were transferred to clean tubes. 27.5 μL of each of the vehicle controls were combined into one tube to provide a labeling standard sample.
For the labeling control, 50 μL of sample was added to 1 μL of 5 mM RSL3 and another 50 μL of sample was added to DMSO as a control. The samples were mixed and incubated for 1 hr at room temperature (RT). […]
Blots were blocked with 5% Milk in TBST for 1 hr. […] Anti-rabbit-HRP was used at 1:5000 in 5% milk in TBST for ˜1 hr RT and signal was detected using the Western Pico® ECL reagent. […] The integrated density of bands for +/−streptavidin was quantitated using ImageJ® (National Institutes of Health).

[4] = target: T4, transglutaminase 2 (TGase 2) (Homo sapiens, UniProt P21980); details: under a modified assay condition; cited from earlier work
T4 sequence (P21980 1-687): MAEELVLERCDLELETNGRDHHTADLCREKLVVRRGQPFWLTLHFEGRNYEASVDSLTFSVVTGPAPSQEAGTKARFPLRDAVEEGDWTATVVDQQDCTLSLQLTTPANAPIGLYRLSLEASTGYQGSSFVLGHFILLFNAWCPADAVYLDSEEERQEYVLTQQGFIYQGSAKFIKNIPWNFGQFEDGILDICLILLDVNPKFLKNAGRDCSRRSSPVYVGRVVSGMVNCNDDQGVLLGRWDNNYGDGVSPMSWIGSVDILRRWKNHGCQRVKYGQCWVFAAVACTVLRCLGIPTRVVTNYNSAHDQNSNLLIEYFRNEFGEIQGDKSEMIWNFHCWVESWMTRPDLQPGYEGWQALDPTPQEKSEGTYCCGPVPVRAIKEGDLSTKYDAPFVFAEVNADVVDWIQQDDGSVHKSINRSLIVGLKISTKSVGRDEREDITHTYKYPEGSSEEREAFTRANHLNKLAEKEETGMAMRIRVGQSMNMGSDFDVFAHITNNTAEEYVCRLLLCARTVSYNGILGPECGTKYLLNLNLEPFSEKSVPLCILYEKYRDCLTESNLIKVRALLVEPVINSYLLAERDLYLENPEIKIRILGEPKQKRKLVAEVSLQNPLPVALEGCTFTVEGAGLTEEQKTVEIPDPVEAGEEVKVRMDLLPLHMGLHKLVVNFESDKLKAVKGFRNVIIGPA

| Compound | selective killing of senescent HUVEC cells as compared to non-senescent HUVECs [2] | selective killing of senescent HRMEC cells as compared to non-senescent HRMECs [3] | further results |
| --- | --- | --- | --- |
| [N-]=[N+]=CC(=O)CC[C@H](N)C(=O)O [6-Diazo-5-oxo-L-norleucine] |  |  | IC50 [1]: ~1000 µM |
| CNC(=O)c1cn(C[C@H](F)CCc2ccc(NC(=O)Cc3cc(OC4CC(F)(F)C4)cc(C)n3)nn2)nn1 [IPN-60090 dihydrochloride] |  |  | activity against GLS-2 (GLS2): no activity observed |
| O=C(/C(C[N+](=O)[O-])=N/O)N1CCN(C(c2ccc(Cl)cc2)c2ccc(Cl)cc2)CC1 [JKE-1674, (E)-1-(4-(bis(4-chlorophenyl)methyl)piperazin-1-yl)-2-(hydroxyimino)-3-nitropropan-1-one] | selectively senolytic |  |  |
| Cc1onc(C(=O)N2CCN(C(c3ccc(Cl)cc3)c3ccc(Cl)cc3)CC2)c1[N+](=O)[O-] [ML210] |  | selectively senolytic |  |
| COC(=O)c1ccc([C@H]2c3[nH]c4ccccc4c3C[C@H](C(=O)OC)N2C(=O)CCl)cc1 [RSL3, (1S,3R)-methyl 2-(2-chloroacetyl)-1-(4-(methoxycarbonyl)phenyl)-2,3,4,9-tetrahydro-1H-pyrido[3,4-b]indole-3-carboxylate] | selectively senolytic | selectively senolytic | GPX4 target engagement (TE) (GPX4): dose-dependent GPX4 TE |
| GK921 |  |  | IC50 [4]: 8.93 µM |
